In PMC11677235, “Heterologous Production, Purification and Characterization of Two Cold-Active β-D-Galactosidases with Transglycosylation Activity from the Psychrotolerant Arctic Bacterium Arthrobacter sp. S3* Isolated from Spitsbergen Island Soil” (International Journal of Molecular Sciences, 2024):
Read-outs that look alike come from different tables or passages of the source.

Key:
Type in all cases: biochemical
[1] = target: T1, Arthrobacter sp. S3* Bgal2 (GH2 β-D-galactosidase) (Arthrobacter sp. ON14, UniProt D9IU58); test: glucose release by Glucose (GO) Assay Kit, Lineweaver-Burk; conditions: read-out: Km (mM) / Lactose; 20 mM potassium phosphate, 50 mM KCl, pH 7.5, 20 °C
T1 construct: gene galA
Source text: glucose release by Glucose (GO) Assay Kit, Lineweaver-Burk on Arthrobacter sp. S3* Bgal2 (GH2 β-D-galactosidase)

[2] = target: T2, Arthrobacter sp. S3* Bgal42 (GH42 β-D-galactosidase) (Arthrobacter sp. ON14, UniProt D9IU57, P2A/G388S/G665D); test: inhibition of ONPG hydrolysis, absorbance […] nm; conditions: 5 mM monosaccharide, 1-5 mM ONPG, 20 mM potassium phosphate, pH 7.0, 30 °C, read-out: apparent Ki
T2 construct: gene galB

[3] = target: T1, Arthrobacter sp. S3* Bgal2 (GH2 β-D-galactosidase); test: o-nitrophenol release, absorbance […] nm, Lineweaver-Burk; conditions: 20 mM potassium phosphate, 50 mM KCl, pH 7.5, 20 °C; read-out: Km (mM) / ONPG
Source text: S3* Bgal2 (GH2 β-D-galactosidase)

T2 sequence (D9IU57 entry or part of it P2A/G388S/G665D): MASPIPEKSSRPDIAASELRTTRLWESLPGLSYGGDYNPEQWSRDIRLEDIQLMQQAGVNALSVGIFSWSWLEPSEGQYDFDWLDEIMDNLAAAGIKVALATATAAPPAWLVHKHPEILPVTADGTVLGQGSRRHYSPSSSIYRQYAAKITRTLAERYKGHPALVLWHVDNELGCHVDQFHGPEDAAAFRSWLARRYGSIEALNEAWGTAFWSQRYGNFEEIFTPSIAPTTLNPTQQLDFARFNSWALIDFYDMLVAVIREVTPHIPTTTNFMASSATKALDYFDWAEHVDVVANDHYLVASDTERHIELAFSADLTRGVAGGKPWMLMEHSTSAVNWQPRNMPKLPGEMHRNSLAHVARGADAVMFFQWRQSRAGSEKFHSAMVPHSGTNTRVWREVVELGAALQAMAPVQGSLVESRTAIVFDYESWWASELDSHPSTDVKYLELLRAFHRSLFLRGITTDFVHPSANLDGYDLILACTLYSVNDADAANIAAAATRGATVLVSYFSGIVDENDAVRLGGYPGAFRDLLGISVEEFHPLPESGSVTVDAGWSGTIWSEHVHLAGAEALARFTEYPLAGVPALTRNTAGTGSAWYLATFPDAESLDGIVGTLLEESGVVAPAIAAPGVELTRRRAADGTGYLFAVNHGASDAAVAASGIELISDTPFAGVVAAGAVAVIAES
T1 sequence (D9IU58 entry or part of it): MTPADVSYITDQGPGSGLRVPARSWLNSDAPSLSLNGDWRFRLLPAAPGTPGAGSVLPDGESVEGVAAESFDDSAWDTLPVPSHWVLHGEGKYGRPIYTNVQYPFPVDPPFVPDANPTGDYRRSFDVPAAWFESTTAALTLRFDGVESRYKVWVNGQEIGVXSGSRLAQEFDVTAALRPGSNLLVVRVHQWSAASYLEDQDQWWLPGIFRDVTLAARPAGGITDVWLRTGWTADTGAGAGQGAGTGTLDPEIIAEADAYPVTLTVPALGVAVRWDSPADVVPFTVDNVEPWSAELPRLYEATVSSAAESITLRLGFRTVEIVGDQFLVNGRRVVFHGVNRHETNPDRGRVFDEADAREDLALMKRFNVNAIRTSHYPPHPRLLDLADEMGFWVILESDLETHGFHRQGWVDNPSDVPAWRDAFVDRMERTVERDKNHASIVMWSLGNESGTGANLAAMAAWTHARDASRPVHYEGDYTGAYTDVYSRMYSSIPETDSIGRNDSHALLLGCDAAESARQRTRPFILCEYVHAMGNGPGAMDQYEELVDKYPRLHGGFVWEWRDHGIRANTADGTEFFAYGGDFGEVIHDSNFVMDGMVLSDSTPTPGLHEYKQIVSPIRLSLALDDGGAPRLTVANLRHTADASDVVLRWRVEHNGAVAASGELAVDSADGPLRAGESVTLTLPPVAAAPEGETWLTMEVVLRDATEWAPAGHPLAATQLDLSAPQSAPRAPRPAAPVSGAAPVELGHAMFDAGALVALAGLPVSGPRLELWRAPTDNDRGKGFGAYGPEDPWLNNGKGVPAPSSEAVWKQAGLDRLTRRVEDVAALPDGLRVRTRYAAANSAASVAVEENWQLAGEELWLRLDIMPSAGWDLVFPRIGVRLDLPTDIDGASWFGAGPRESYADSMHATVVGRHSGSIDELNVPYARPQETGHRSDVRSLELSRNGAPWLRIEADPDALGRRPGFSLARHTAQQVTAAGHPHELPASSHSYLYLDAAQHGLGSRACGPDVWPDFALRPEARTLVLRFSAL

Structure (SMILES): OC[C@H]1O[C@@H](O[C@H]2[C@H](O)[C@@H](O)C(O)O[C@@H]2CO)[C@H](O)[C@@H](O)[C@H]1O (stereo partly shown) [lactose]
- Km [1]: 16.7 ± 0.81 mM

Structure (SMILES): OC[C@H]1OC(O)[C@H](O)[C@@H](O)[C@@H]1O (stereo partly drawn) [D-glucose]
- Ki ([2]; uncompetitive): 6.01 mM

Structure (SMILES): OC[C@H]1OC(O)[C@H](O)[C@@H](O)[C@H]1O (stereo partly drawn) [D-galactose]
- Ki ([2]; competitive): 2.99 mM

Structure (SMILES): O=[N+]([O-])c1ccccc1O[C@@H]1O[C@H](CO)[C@H](O)[C@H](O)[C@H]1O [ONPG]
- Km [3]: 0.32 ± 0.07 mM
